According to US11820766B2, “Monoacylglycerol lipase modulators” (Janssen Pharmaceutica NV, priority 2018, dated 2023):

target: T1, human MGL from HeLa cells (Homo sapiens, UniProt Q99685); experiment: In vitro MGL activity assay: [glycerol-1,3-3H]-oleyl glycerol cleavage by MGL from HeLa cells; type: biochemical; conditions: 300 nM [Glycerol-1,3-3H]-oleyl glycerol, one hour
T1 construct: combining endogenously expressed MGL from HeLa cells with test compounds; endogenous in cells; host or cells: HeLa cells / cell homogenates
T1 sequence (Q99685 1-303): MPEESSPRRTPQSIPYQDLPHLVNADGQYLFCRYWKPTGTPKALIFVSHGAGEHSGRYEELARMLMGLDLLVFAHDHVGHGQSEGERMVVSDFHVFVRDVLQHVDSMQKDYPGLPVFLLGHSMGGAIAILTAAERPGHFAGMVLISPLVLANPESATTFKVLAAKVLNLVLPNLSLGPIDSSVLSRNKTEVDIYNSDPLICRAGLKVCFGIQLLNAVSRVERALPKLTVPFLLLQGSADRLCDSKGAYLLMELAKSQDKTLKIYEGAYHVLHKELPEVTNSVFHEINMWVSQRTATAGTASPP
Text: MGL is the predominant hydrolase in HeLa cells/cell homogenates.

Structure (SMILES) | IC50 [nM]
C[C@H]1c2nn(C)c(-c3cc(F)c(F)c(F)c3)c2CCN1C(=O)c1cnn(C)c1C1(C)CC1 [Example 334, [(7S)-2,7-Dimethyl-3-(3,4,5-trifluorophenyl)-5,7-dihydro-4H-pyrazolo[3,4-c]pyridin-6-yl]-[1-methyl-5-(1-methylcyclopropyl)pyrazol-4-yl]methanone] | 2790
Cc1cc2nccnc2cc1C(=O)N1CCc2c(nn(C)c2-c2cc(F)c(F)c(F)c2)[C@@H]1C [Example 473, [(7S)-2,7-Dimethyl-3-(3,4,5-trifluorophenyl)-5,7-dihydro-4H-pyrazolo[3,4-c]pyridin-6-yl]-(7-methylquinoxalin-6-yl) methanone] | 30.7
COc1ccc(-c2c3c(nn2C)[C@H](C)N(C(=O)c2ccc4ncccc4c2)CC3)cc1C [Example 512, [(7S)-3-(4-Methoxy-3-methyl-phenyl)-2,7-dimethyl-5,7-dihydro-4H-pyrazolo[3,4-c]pyridin-6-yl]-(6-quinolyl)methanone] | 185
C[C@H]1c2nn(C)c(-c3cc(F)c(F)c(F)c3)c2CCN1C(=O)c1n[nH]c2cccnc12 [Example 436, [(7S)-2,7-Dimethyl-3-(3,4,5-trifluorophenyl)-5,7-dihydro-4H-pyrazolo[3,4-c]pyridin-6-yl]-(1H-pyrazolo[4,3-b]pyridin-3-yl)methanone] | 175
C[C@H]1c2nn(C)c(-c3cc(F)c(F)c(F)c3)c2CCN1C(=O)c1n[nH]c2cccc(F)c12 [Example 362, [(7S)-2,7-Dimethyl-3-(3,4,5-trifluorophenyl)-5,7-dihydro-4H-pyrazolo[3,4-c]pyridin-6-yl]-(4-fluoro-1H-indazol-3-yl)methanone] | 2.74
C[C@H]1c2nn(C)c(-c3cc(F)c(F)c(F)c3)c2CCN1C(=O)c1c[nH]c2cccc(F)c12 [Example 357, [(7S)-2,7-Dimethyl-3-(3,4,5-trifluorophenyl)-5,7-dihydro-4H-pyrazolo[3,4-c]pyridin-6-yl]-(4-fluoro-1H-indol-3-yl)methanone] | 8.88
Cc1cc(C)n2ccc(C(=O)N3CCc4c(nn(C)c4-c4cc(F)c(F)c(F)c4)[C@@H]3C)c2n1 [Example 417, (2,4-Dimethylpyrrolo[1,2-a]pyrimidin-8-yl)-[(7S)-2,7-dimethyl-3-(3,4,5-trifluorophenyl)-5,7-dihydro-4H-pyrazolo[3,4-c]pyridin-6-yl] methanone] | 126
C[C@H]1c2nn(C)c(-c3cc(F)c(F)c(F)c3)c2CCN1C(=O)c1nc(C2CC2)n2ccccc12 [Example 421, (3-Cyclopropylimidazo[1,5-a]pyridin-1-yl)-[(7S)-2,7-dimethyl-3-(3,4,5-trifluorophenyl)-5,7-dihydro-4H-pyrazolo[3,4-c]pyridin-6-yl]methanone] | 6.66
C[C@H]1c2nn(C)c(-c3cc(F)c(F)c(F)c3)c2CCN1C(=O)c1cnn(C)c1C1CC1(F)F (single isomer, unassigned) [Example 337, (5-((R*)-2,2-difluorocyclopropyl)-1-methyl-1H-pyrazol-4-yl)((S)-2,7-dimethyl-3-(3,4,5-trifluorophenyl)-2,4,5,7-tetrahydro-6H-pyrazolo[3,4-c]pyridin-6-yl)methanone] | 8.07
C[C@H]1c2nn(C)c(-c3cc(F)c(F)c(F)c3)c2CCN1C(=O)c1ccc2nnc(C(F)F)n2c1 [Example 440, [3-(Difluoromethyl)-[1,2,4]triazolo[4,3-a]pyridin-6-yl]-[(7S)-2,7-dimethyl-3-(3,4,5-trifluorophenyl)-5,7-dihydro-4H-pyrazolo[3,4-c]pyridin-6-yl]methanone] | 865

same assay, conditions: 300 nM [Glycerol-1,3-3H]-oleyl glycerol, one hour incubation

Structure (SMILES) | IC50 [nM]
C[C@H]1c2nn(C)c(-c3cc(F)c(F)c(F)c3)c2CCN1C(=O)c1ncn(-c2ccccn2)n1 [Example 323, [(7S)-2,7-Dimethyl-3-(3,4,5-trifluorophenyl)-5,7-dihydro-4H-pyrazolo[3,4-c]pyridin-6-yl]-[1-(2-pyridyl)-1,2,4-triazol-3-yl]methanone] | 65.6
CC1c2nn(C)c(-c3cc(F)cc(F)c3)c2CCN1C(=O)c1ccc2nccc(Br)c2c1 (stereo not shown) [Example 162, (4-Bromoquinolin-6-yl)(3-(3,5-difluorophenyl)-2,7-dimethyl-2,4,5,7-tetrahydro-6H-pyrazolo[3,4-c]pyridin-6-yl)methanone] | 11.3
C[C@H]1c2nn(C)c(-c3cc(F)c(F)c(F)c3)c2CCN1C(=O)c1cccc(-c2cn[nH]c2)c1 [Example 272, [(7S)-2,7-Dimethyl-3-(3,4,5-trifluorophenyl)-5,7-dihydro-4H-pyrazolo[3,4-c]pyridin-6-yl]-[3-(1H-pyrazol-4-yl)phenyl]methanone] | 14.6
Cc1ccc(C(=O)N2CCc3c(nn(C)c3-c3cc(F)c(F)c(F)c3)[C@@H]2C)cc1-n1cnnc1 [Example 294, [(7S)-2,7-Dimethyl-3-(3,4,5-trifluorophenyl)-5,7-dihydro-4H-pyrazolo[3,4-c]pyridin-6-yl]-[4-methyl-3-(1,2,4-triazol-4-yl)phenyl]methanone] | 1660
C[C@H]1c2nn(C)c(-c3cc(F)c(F)c(F)c3)c2CCN1C(=O)c1cncc2c1ccn2C [Example 224, (S)-(2,7-Dimethyl-3-(3,4,5-trifluorophenyl)-2,4,5,7-tetrahydro-6H-pyrazolo[3,4-c]pyridin-6-yl)(1-methyl-1H-pyrrolo[2,3-c]pyridin-4-yl)methanone] | 2.55
CC1c2nn(C)c(-c3cccc(Cl)c3)c2CCN1C(=O)c1cnc2ccoc2c1 (racemic) [Example 126, (3-(3-Chlorophenyl)-2,7-dimethyl-2,4,5,7-tetrahydro-6H-pyrazolo[3,4-c]pyridin-6-yl)(furo[3,2-b]pyridin-6-yl)methanone] | 130
COc1cc(OC)cc(C(=O)N2CCc3c(nn(C)c3-c3ccccc3)C2)c1 [Example 11, (3,5-Dimethoxyphenyl)-(2-methyl-3-phenyl-5,7-dihydro-4H-pyrazolo[3,4-c]pyridin-6-yl)methanone] | 187
Cn1nc2c(c1-c1ccccc1)CCN(C(=O)c1ccccc1-n1cncn1)C2 [Example 18, (2-(1H-1,2,4-Triazol-1-yl)phenyl)(2-methyl-3-phenyl-2,4,5,7-tetrahydro-6H-pyrazolo[3,4-c]pyridin-6-yl)methanone] | 671
C[C@H]1c2nn(C)c(-c3cc(F)c(F)c(F)c3)c2CCN1C(=O)c1ccccc1OC(F)(F)F [Example 263, [(7S)-2,7-Dimethyl-3-(3,4,5-trifluorophenyl)-5,7-dihydro-4H-pyrazolo[3,4-c]pyridin-6-yl]-[2-(trifluoromethoxy)phenyl]methanone] | 28.3
Cc1ncn(-c2cccc(C(=O)N3CCc4c(nn(C)c4-c4cc(F)c(F)c(F)c4)[C@@H]3C)c2)n1 [Example 276, [(7S)-2,7-Dimethyl-3-(3,4,5-trifluorophenyl)-5,7-dihydro-4H-pyrazolo[3,4-c]pyridin-6-yl]-[3-(3-methyl-1,2,4-triazol-1-yl)phenyl]methanone] | 145
C[C@H]1c2nn(C)c(-c3cc(F)c(F)c(F)c3)c2CCN1C(=O)c1cc2cccnc2n1C [Example 222, (S)-(2,7-Dimethyl-3-(3,4,5-trifluorophenyl)-2,4,5,7-tetrahydro-6H-pyrazolo[3,4-c]pyridin-6-yl)(1-methyl-1H-pyrrolo[2,3-b]pyridin-2-yl)methanone] | 64.7
C[C@H]1c2nn(C)c(-c3cc(F)c(F)c(F)c3)c2CCN1C(=O)c1cccc2cc[nH]c12 [Example 205, (S)-(2,7-Dimethyl-3-(3,4,5-trifluorophenyl)-2,4,5,7-tetrahydro-6H-pyrazolo[3,4-c]pyridin-6-yl)(1H-indol-7-yl)methanone] | 33.3
C[C@H]1c2nn(C)c(-c3cc(F)c(F)c(F)c3)c2CCN1C(=O)c1noc2ccccc12 [Example 215, (S)-Benzo[d]isoxazol-3-yl(2,7-dimethyl-3-(3,4,5-trifluorophenyl)-2,4,5,7-tetrahydro-6H-pyrazolo[3,4-c]pyridin-6-yl)methanone] | 3.17
CCc1nc(C(=O)N2CCc3c(nn(C)c3-c3cc(F)cc(F)c3)[C@@H]2C)nn1-c1ccccc1 [Example 149, (S)-(3-(3,5-Difluorophenyl)-2,7-dimethyl-2,4,5,7-tetrahydro-6H-pyrazolo[3,4-c]pyridin-6-yl)(5-ethyl-1-phenyl-1H-1,2,4-triazol-3-yl)methanone] | 11.9
COc1cc(C(=O)N2CCc3c(nn(C)c3-c3cc(F)c(F)c(F)c3)[C@@H]2C)cnc1C [Example 310, [(7S)-2,7-Dimethyl-3-(3,4,5-trifluorophenyl)-5,7-dihydro-4H-pyrazolo[3,4-c]pyridin-6-yl]-(5-methoxy-6-methyl-3-pyridyl)methanone] | 96.3
COc1ccnc(C(=O)N2CCc3c(nn(C)c3-c3cc(F)c(F)c(F)c3)[C@@H]2C)c1 [Example 309, [(7S)-2,7-Dimethyl-3-(3,4,5-trifluorophenyl)-5,7-dihydro-4H-pyrazolo[3,4-c]pyridin-6-yl]-(4-methoxy-2-pyridyl)methanone] | 219
C[C@H]1c2nn(C)c(-c3cc(F)cc(F)c3)c2CCN1C(=O)c1ccc2ncc(C(F)(F)F)cc2c1 [Example 165, (S)-(3-(3,5-Difluorophenyl)-2,7-dimethyl-2,4,5,7-tetrahydro-6H-pyrazolo[3,4-c]pyridin-6-yl)(3-(trifluoromethyl)quinolin-6-yl)methanone] | 103
Cn1nc2c(c1-c1ccccc1)CCN(C(=O)c1ccnc3ccccc13)C2 [Example 86, (2-Methyl-3-phenyl-2,4,5,7-tetrahydro-6H-pyrazolo[3,4-c]pyridin-6-yl)(quinolin-4-yl)methanone] | 32.4
